These results are taken from patent US6486310B1, “Gene encoding the rat dopamine D4 receptor” (Washington University, priority 1993, dated 2002).

Read-outs that look alike come from different tables or passages of the source.

Experiment [1] deals with D4 transfected MN9D cells. In words: Neurite morphology of D4 transfected MN9D cells. The following applies: 1 μM eticlopride co-cultured with 2 μM quinpirole.
The test system of experiment [2] is D2A444 transfected MN9D cells. Briefly: Neurite morphology of D2A444 transfected MN9D cells. The following applies: 1 μM eticlopride co-cultured with 2 μM quinpirole.
Experiment [3] deals with T1, rat D4 receptor (Rattus norvegicus, UniProt P30729).
T1 sequence (P30729 1-387): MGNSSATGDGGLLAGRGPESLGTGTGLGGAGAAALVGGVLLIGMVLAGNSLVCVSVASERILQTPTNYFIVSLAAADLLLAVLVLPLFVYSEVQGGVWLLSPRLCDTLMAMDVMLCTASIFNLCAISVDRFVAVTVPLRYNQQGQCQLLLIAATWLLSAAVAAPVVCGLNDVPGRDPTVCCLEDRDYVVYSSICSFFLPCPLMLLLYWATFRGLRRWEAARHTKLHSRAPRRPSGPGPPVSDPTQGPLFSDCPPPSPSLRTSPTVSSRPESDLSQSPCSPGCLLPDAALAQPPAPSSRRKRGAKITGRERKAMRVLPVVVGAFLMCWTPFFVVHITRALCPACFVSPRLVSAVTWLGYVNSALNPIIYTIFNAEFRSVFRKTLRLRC
In words: biochemical. An excerpt:
FIG. 4 is a pharmacological analysis of transfected rat D2444 and D4 receptors and human D3 receptors in CCL1.3 cells. […] FIG. 4B is a graph of [^3H]-spiperone (%) versus log [(+)butaclamol, M]. […] The rat D4 gene, the rat D2444 cDNA and the human D3 cDNA were inserted into the expression vector pcDNA/neo and transfected into CCL1.3 cells. […] Open circles, D4-expressing cells; closed circles, D2444-expressing cells, triangles, D3-expressing cells. Results are shown as mean±SD of percent of specifically bound [^3H]spiperone remaining for an experiment done in triplicate.
Mouse fibroblasts expressing D2A444 and D4 were grown to 70% confluence and then harvested by scraping. After they had been washed twice in PBS, the cell pellets were resuspended in distilled water and ruptured by homogenization with a Brinkman Polytron, at setting 6 for 10 sec. Nuclei were removed by centrifugation for 5 min at 600 g. Membranes were pelleted by centrifugation for 25 min at 50,000 g. The pellets were resuspended in water and frozen at −70° C. until assayed. For receptor binding assays, samples containing 150 μg of membrane protein were aliquoted into glass test tubes. [^3H]-Spiperone (1 nm) and varying concentrations of competing compounds were added in a final volume of 1 ml and a final buffer of 1.5 Mm CaCl2, 5 mM MgCl2, 5 mM KCl, 120 mM NaCl, 50 mM Tris-HCl, pH 7.4 at 20° C. The tubes were incubated for 15 min at 37° C., and the assays were terminated by addition of 5 ml of ice-cold 50 Mm Tris-HCl buffer (pH 6.9), collected onto glass-fiber filters, and washed twice with the same cold buffer in a modified Brandel cell harvester.
Transfected cells were enriched by expansion in medium containing G418. The rat D2 cDNA and the human D3 cDNA were expressed in the same cell line.

Experiment [4] deals with D3 transfected MN9D cells. In words: Neurite morphology of D3 transfected MN9D cells. The following applies: 1 μM eticlopride co-cultured with 2 μM quinpirole.
The test system of experiment [5] is tyrosine hydroxylase expressing cells from E15 rat mesencephalon. Briefly: Morphology of tyrosine hydroxylase positive cells in primary E15 mesencephalon cultures. Type of experiment: cell-based. The following applies: 2 μM quinpirole, 90 hours, high density culture. An excerpt:
Cultures were then fixed and dopamine synthesizing cells identified by tyrosine hydroxylase immunoreactivity. […] There are five TH positive cells in the control condition and three TH positive cells in the quinpirole condition.

Turning to `CCc1cc(Cl)c(OC)c(C(=O)NC[C@@H]2CCCN2CC)c1O` [eticlopride], the “block of the effects of quinpirole stimulation” value in experiment [1], in experiment [2] and in experiment [4] was “can be blocked” in each case. Also, the Ki in experiment [3] (Ki (D4)) was 22.3 ± 1.9 nM; in experiment [3] (apparent Ki, D4 receptor), 27 ± 2.9 nM.
On to `CCCN1CCC[C@@H]2Cc3n[nH]cc3C[C@H]21` [quinpirole], for which, in experiment [5], the “morphology of TH positive cells versus control (in words)” value was “larger, have more branch points and much more extensive growth cone elaboration”.
Take (+)butaclamol [(+) butaclamal]: the Ki in experiment [3] (read-out: apparent Ki, D4 receptor, transfected CCL1.3 cells, competition of 1 nM [3H]spiperone, mean±SEM) stood at 51.3 ± 17.5 nM.
